Consider 51 compounds from the SangsterLogP compilation.

A short description of the data set: method code SF-AS, from DOI: 10.1271/bbb1961.38.1521.
As for `CNC(=O)Oc1cccc(Cl)c1`, the log partition coefficient (logP) – broadly, the decadic logarithm of the partition coefficient of the neutral form, usually between octanol and water – came out at 2.03. The figure for `CCC(C)c1ccc(OC(=O)NC)cc1` (stereo unspecified) is 3.2; for `CNC(=O)Oc1ccc(Br)cc1` it is 2.17; for `CNC(=O)Oc1ccc(S(C)(=O)=O)cc1` it is 0.34. Take `CNC(=O)Oc1cccc(C(F)(F)F)c1`: the lipophilicity (logP) amounted to 2.37. The same measure for `CNC(=O)Oc1ccc(Cl)c(C)c1`: 2.57; for `CCCCOc1ccc(OC(=O)NC)cc1`: 2.86.

For the compound `CCC(=O)c1ccc(OC(=O)NC)cc1`, the log partition coefficient (logP) amounted to 1.55.

As for `CCOc1ccccc1OC(=O)NC`, the log partition coefficient (logP) was 1.24. The same measure for `CNC(=O)Oc1cccc(Br)c1`: 2.25; for `CNC(=O)Oc1ccc(C(C)(C)C)cc1`: 3.06; for `CNC(=O)Oc1ccc(C(C)(C)C)c(C)c1`: 3.38.

`CCCc1ccccc1OC(=O)NC` returned a logP of 2.4. The figure for `CCCCOc1cccc(OC(=O)NC)c1` is 2.96; for `CNC(=O)Oc1cc(Cl)cc(Cl)c1` it is 3.03. `CNC(=O)Oc1ccccc1C(C)(C)C`: the lipophilicity (logP) worked out at 2.65. In turn, `CNC(=O)Oc1cccc(C)c1C` displayed a logP of 1.95. Compound `CNC(=O)Oc1ccccc1[N+](=O)[O-]` registered a lipophilicity (logP) of 1.02. The figure for `CNC(=O)Oc1ccc(Cl)cc1` is 2.01; for `CNC(=O)Oc1cc(C)cc(C(C)C)c1` it is 3.1.

Consider `CNC(=O)Oc1ccccc1F`, for which the logP turned out to be 1.25. `CNC(=O)Oc1cccc(C=O)c1` had a logP of 0.92. Take `CNC(=O)Oc1cccc(F)c1`: the logP worked out at 1.48.

In turn, `CCc1ccccc1OC(=O)NC` came in with a logP of 1.93. The same measure for `CNC(=O)Oc1cccc2ccccc12`: 2.36; for `CCCc1cccc(OC(=O)NC)c1`: 2.64; for `CNC(=O)Oc1cccc(OC(C)C)c1`: 1.96. The figure for `CNC(=O)Oc1ccc(C(C)=O)cc1` is 1.01; for `CNC(=O)Oc1ccc(SC)cc1` it is 1.92. The figure for `CNC(=O)Oc1cc(C)ccc1C` is 2.03; for `CNC(=O)Oc1cc(C)ccc1C(C)(C)C` it is 3.14; for `CNC(=O)Oc1ccc(Cl)c(Cl)c1` it is 2.8.

`CNC(=O)Oc1ccccc1C(C)C` returned a logP of 2.31. `CNC(=O)Oc1cccc(C(C)C)c1` displayed a log partition coefficient (logP) of 2.63. `CNC(=O)Oc1ccc(C#N)cc1` gave a logP of 0.95. The figure for `CNC(=O)Oc1ccccc1OC` is 0.81; for `CNC(=O)Oc1ccc([N+](=O)[O-])cc1` it is 1.47.

In the case of `CNC(=O)Oc1ccccc1C#N`, the lipophilicity (logP) was 0.86. The figure for `CNC(=O)Oc1ccccc1Br` is 1.77; for `CNC(=O)Oc1ccccc1I` it is 1.96. Compound `CNC(=O)Oc1cc(C)cc(C(C)(C)C)c1` returned a logP of 3.35.

`CNC(=O)Oc1ccccc1C` yielded a logP of 1.46. The same measure for `CNC(=O)Oc1ccccc1Cl`: 1.64; for `CCCc1ccc(OC(=O)NC)cc1`: 2.72.

As to `CNC(=O)Oc1cc(C)ccc1C(C)C`, the lipophilicity (logP) is 2.84.

Take `CNC(=O)Oc1ccc(C=O)cc1`: the logP was determined as 0.99.

For `CNC(=O)Oc1cccc(C(=O)OC)c1`, the logP worked out at 1.42.

For `CNC(=O)Oc1ccc2ccccc2c1`, the log partition coefficient (logP) came to 2.56.

Compound `CNC(=O)Oc1ccc(C(=O)OC)cc1` registered a log partition coefficient (logP) of 1.5. The figure for `CNC(=O)Oc1cccc(C(C)(C)C)c1` is 2.93. In turn, `CNC(=O)Oc1ccc(SC)c(C)c1` yielded a logP of 2.47.
